pIC50: −log10 of the molar value. Where a name gives a salt, the structure may show the parent alone.
Biological target: AKT1 (Homo sapiens (Human), UniProt P31749)
Assay: Inactive Akt Alpha Screen Assay
Conditions: non *labeled: Akt Alpha Screen assay; read-out: AKT1 biochemical assay, IC50
In short: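 AKT1 activated in situ by PDK1, MAPKAPK2, lipid vesicles and ATP, then phosphorylating biotinylated crosstide for 30 min at room temperature. Stopped with 10 mM EDTA; phosphopeptide detected by AlphaScreen using phospho-AKT substrate antibody (1:350), Protein A acceptor and streptavidin donor beads, 90 min dark, ex 640/em 570 nm.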

Sequence of AKT1 (P31749 whole entry): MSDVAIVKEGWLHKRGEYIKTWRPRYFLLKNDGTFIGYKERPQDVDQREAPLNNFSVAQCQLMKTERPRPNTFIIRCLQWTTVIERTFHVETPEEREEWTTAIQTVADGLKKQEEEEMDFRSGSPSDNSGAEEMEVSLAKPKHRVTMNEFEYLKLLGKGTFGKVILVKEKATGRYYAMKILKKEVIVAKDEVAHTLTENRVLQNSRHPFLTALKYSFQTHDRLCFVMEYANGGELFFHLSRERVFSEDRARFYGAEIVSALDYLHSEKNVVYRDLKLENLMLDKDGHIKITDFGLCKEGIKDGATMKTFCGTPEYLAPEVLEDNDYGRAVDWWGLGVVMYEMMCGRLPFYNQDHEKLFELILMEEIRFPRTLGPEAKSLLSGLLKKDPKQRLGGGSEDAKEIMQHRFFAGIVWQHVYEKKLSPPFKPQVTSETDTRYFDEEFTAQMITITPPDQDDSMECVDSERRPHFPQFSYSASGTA

SMILES	pIC50
NCc1ccc(-c2nnc3n2-c2cccnc2Nc2ccc(Br)cc2-3)cc1 [Example 227, (4-(12-bromo-9H-benzo[f]pyrido[2,3-b][1,2,4]triazolo[4,3-d][1,4]diazepin-3-yl)phenyl)methanamine]	5.21
Cn1ccc(S(=O)(=O)NCc2ccc(-c3nnc4n3-c3cccnc3Nc3ccccc3-4)cc2)n1 [Example 104, N-(4-(9H-benzo[f]pyrido[2,3-b][1,2,4]triazolo[4,3-d][1,4]diazepin-3-yl)benzyl)-1-methyl-1H-pyrazole-3-sulfonamide]	6.92
O=C(Nc1ccc(-c2nnc3n2-c2cccnc2Nc2ccccc2-3)cc1)c1cnc2ccccc2n1 [Example 55, N-(4-(9H-benzo[f]pyrido[2,3-b][1,2,4]triazolo[4,3-d][1,4]diazepin-3-yl)phenyl)quinoxaline-2-carboxamide]	6.80
NC1(c2ccc(-c3nnc4n3-c3cccnc3Nc3ccccc3-4)cc2)CC1 [Example 222, 1-(4-(9H-benzo[f]pyrido[2,3-b][1,2,4]triazolo[4,3-d][1,4]diazepin-3-yl)phenyl)cyclopropanamine]	6.85
c1ccc2c(c1)Nc1ncccc1-n1c(-c3ccc(CN4CCC(c5nnc(-c6ccncc6)[nH]5)CC4)cc3)nnc1-2 [Example 131, 3-(4-((4-(5-(pyridin-4-yl)-4H-1,2,4-triazol-3-yl)piperidin-1-yl)methyl)phenyl)-9H-benzo[f]pyrido[2,3-b][1,2,4]triazolo[4,3-d][1,4]diazepine]	6.77
N#Cc1ccc(C(=O)N2CCN(Cc3ccc(-c4nnc5n4-c4cccnc4Nc4ccccc4-5)cc3)CC2)cc1 [Example 139, 4-(4-(4-(9H-benzo[f]pyrido[2,3-b][1,2,4]triazolo[4,3-d][1,4]diazepin-3-yl)benzyl)piperazine-1-carbonyl)benzonitrile]	6.00
O=c1[nH]c2ccccc2n1C1CCN(Cc2ccc(-c3nnc4n3-c3cccnc3Nc3ccccc3-4)cc2)CC1 [Example 24, 1-(1-(4-(9H-benzo[f]pyrido[2,3-b][1,2,4]triazolo[4,3-d][1,4]diazepin-3-yl)benzyl)piperidin-4-yl)-1H-benzo[d]imidazol-2(3H)-one]	7.08
OC1CCCN(Cc2ccc(-c3nnc4n3-c3cccnc3Nc3ccccc3-4)cc2)C1 (stereo not shown) [Example 83, 1-(4-(9H-benzo[f]pyrido[2,3-b][1,2,4]triazolo[4,3-d][1,4]diazepin-3-yl)benzyl)piperidin-3-ol]	5.24
Cc1ccc(C(=O)N2CCN(Cc3ccc(-c4nnc5n4-c4cccnc4Nc4ccccc4-5)cc3)CC2)cc1 [Example 160, (4-(4-(9H-benzo[f]pyrido[2,3-b][1,2,4]triazolo[4,3-d][1,4]diazepin-3-yl)benzyl)piperazin-1-yl)(p-tolyl)methanone]	5.52
O=S(=O)(CC1CCCCC1)NC1CCN(Cc2ccc(-c3nnc4n3-c3cccnc3Nc3ccccc3-4)cc2)CC1 [Example 148, N-(1-(4-(9H-benzo[f]pyrido[2,3-b][1,2,4]triazolo[4,3-d][1,4]diazepin-3-yl)benzyl)piperidin-4-yl)-1-cyclohexylmethanesulfonamide]	5.47
COc1ccc(CCNC(=O)NC2CCN(Cc3ccc(-c4nnc5n4-c4cccnc4Nc4ccccc4-5)cc3)CC2)cc1OC [Example 169, 1-(1-(4-(9H-benzo[f]pyrido[2,3-b][1,2,4]triazolo[4,3-d][1,4]diazepin-3-yl)benzyl)piperidin-4-yl)-3-(3,4-dimethoxyphenethyl)urea]	5.22
Cc1cccc(S(=O)(=O)NC2(c3ccc(-c4nnc5n4-c4cccnc4Nc4ccccc4-5)cc3)CCC2)c1 [Example 199, N-(1-(4-(9H-benzo[f]pyrido[2,3-b][1,2,4]triazolo[4,3-d][1,4]diazepin-3-yl)phenyl)cyclobutyl)-3-methylbenzenesulfonamide]	6.34
COc1ccccc1C(=O)N1CCN(Cc2ccc(-c3nnc4n3-c3cccnc3Nc3ccccc3-4)cc2)CC1 [Example 134, (4-(4-(9H-benzo[f]pyrido[2,3-b][1,2,4]triazolo[4,3-d][1,4]diazepin-3-yl)benzyl)piperazin-1-yl)(2-methoxyphenyl)methanone]	6.37
O=C(Nc1ccc(-c2nnc3n2-c2cccnc2Nc2ccccc2-3)cc1)c1ccccc1F [Example 51, N-(4-(9H-benzo[f]pyrido[2,3-b][1,2,4]triazolo[4,3-d][1,4]diazepin-3-yl)phenyl)-2-fluorobenzamide]	6.96
Oc1ccc(-c2nnc3n2-c2cccnc2Nc2ccccc2-3)cc1 [Example 19, 4-(9H-benzo[f]pyrido[2,3-b][1,2,4]triazolo[4,3-d][1,4]diazepin-3-yl)phenol]	5.66
c1ccc2c(c1)Nc1ncccc1-n1c(-c3ccc(C4CCCN4)cc3)nnc1-2 (stereo not shown) [Example 196, 3-(4-(pyrrolidin-2-yl)phenyl)-9H-benzo[f]pyrido[2,3-b][1,2,4]triazolo[4,3-d][1,4]diazepine]	5.96
O=C(NCc1ccc(-c2nnc3n2-c2cccnc2Nc2ccccc2-3)cc1)Nc1ccccc1 [Example 107, 1-(4-(9H-benzo[f]pyrido[2,3-b][1,2,4]triazolo[4,3-d][1,4]diazepin-3-yl)benzyl)-3-phenylurea]	5.54

SMILES	pIC50
NCc1ccc(-c2nnc3n2-c2cccnc2Nc2ccccc2-3)cc1 [Example 62, (4-(9H-benzo[f]pyrido[2,3-b][1,2,4]triazolo[4,3-d][1,4]diazepin-3-yl)phenyl)methanamine]	6.16
O=c1[nH]c(-c2ccccc2)cn1C1CCN(Cc2ccc(-c3nnc4n3-c3cccnc3Nc3ccccc3-4)cc2)CC1 [Example 191, 1-(1-(4-(9H-benzo[f]pyrido[2,3-b][1,2,4]triazolo[4,3-d][1,4]diazepin-3-yl)benzyl)piperidin-4-yl)-4-phenyl-1H-imidazol-2(3H)-one]	7.32
O=C(c1ccccc1F)N1CCN(Cc2ccc(-c3nnc4n3-c3cccnc3Nc3ccccc3-4)cc2)CC1 [Example 141, (4-(4-(9H-benzo[f]pyrido[2,3-b][1,2,4]triazolo[4,3-d][1,4]diazepin-3-yl)benzyl)piperazin-1-yl)(2-fluorophenyl)methanone]	6.35
Nc1ccc(-c2nnc3n2-c2cccnc2Nc2ccccc2-3)cc1 [Example 11, hydrochloride]	6.14
Clc1ccc(-c2nnc3n2-c2cccnc2Nc2ccccc2-3)cc1Cl [Example 13, hydrochloride]	5.29
Cc1noc(C2CCCN(Cc3ccc(-c4nnc5n4-c4cccnc4Nc4ccccc4-5)cc3)C2)n1 (stereo not shown) [Example 190, 5-(1-(4-(9H-benzo[f]pyrido[2,3-b][1,2,4]triazolo[4,3-d][1,4]diazepin-3-yl)benzyl)piperidin-3-yl)-3-methyl-1,2,4-oxadiazole]	6.39
O=S(=O)(NCCc1ccc(-c2nnc3n2-c2cccnc2Nc2ccccc2-3)cc1)c1ccccc1 [Example 108, N-(4-(9H-benzo[f]pyrido[2,3-b][1,2,4]triazolo[4,3-d][1,4]diazepin-3-yl)phenethyl)benzenesulfonamide]	5.24
Cc1cc(COCc2ccc(-c3nnc4n3-c3cccnc3Nc3ccccc3-4)cc2)no1 [Example 185, 3-(((4-(9H-benzo[f]pyrido[2,3-b][1,2,4]triazolo[4,3-d][1,4]diazepin-3-yl)benzyl)oxy)methyl)-5-methylisoxazole]	5.68
O=C(c1ccccc1)N1CCN(Cc2ccc(-c3nnc4n3-c3cccnc3Nc3ccccc3-4)cc2)CC1 [Example 144, (4-(4-(9H-benzo[f]pyrido[2,3-b][1,2,4]triazolo[4,3-d][1,4]diazepin-3-yl)benzyl)piperazin-1-yl)(phenyl)methanone]	5.72
Cn1cnc(S(=O)(=O)NCc2ccc(-c3nnc4n3-c3cccnc3Nc3ccccc3-4)cc2)c1 [Example 103, N-(4-(9H-benzo[f]pyrido[2,3-b][1,2,4]triazolo[4,3-d][1,4]diazepin-3-yl)benzyl)-1-methyl-1H-imidazole-4-sulfonamide]	6.62
CCCN(C)Cc1ccc(-c2nnc3n2-c2cccnc2Nc2ccccc2-3)cc1 [Example 90, N-(4-(9H-benzo[f]pyrido[2,3-b][1,2,4]triazolo[4,3-d][1,4]diazepin-3-yl)benzyl)-N-methylpropan-1-amine]	5.60
COc1ccc(NC(=O)NC2CCN(Cc3ccc(-c4nnc5n4-c4cccnc4Nc4ccccc4-5)cc3)CC2)c(C)c1 [Example 184, 1-(1-(4-(9H-benzo[f]pyrido[2,3-b][1,2,4]triazolo[4,3-d][1,4]diazepin-3-yl)benzyl)piperidin-4-yl)-3-(4-methoxy-2-methylphenyl)urea]	6.08
c1ccc(-c2nnc(C3CCN(Cc4ccc(-c5nnc6n5-c5ccccc5Nc5ccccc5-6)cc4)CC3)[nH]2)nc1 [Example 129, 3-(4-((4-(5-(pyridin-2-yl)-4H-1,2,4-triazol-3-yl)piperidin-1-yl)methyl)phenyl)-9H-dibenzo[b,f][1,2,4]triazolo[4,3-d][1,4]diazepine]	6.60
O=C(Nc1ccc(-c2nnc3n2-c2cccnc2Nc2ccccc2-3)cc1)C1CCC1 [Example 57, N-(4-(9H-benzo[f]pyrido[2,3-b][1,2,4]triazolo[4,3-d][1,4]diazepin-3-yl)phenyl)cyclobutanecarboxamide]	6.15
O=C(NCc1ccc(-c2nnc3n2-c2cccnc2Nc2ccccc2-3)cc1)c1ccc(F)cc1 [Example 95, N-(4-(9H-benzo[f]pyrido[2,3-b][1,2,4]triazolo[4,3-d][1,4]diazepin-3-yl)benzyl)-4-fluorobenzamide]	6.52
O=C(Cc1ccccc1)N1CCN(Cc2ccc(-c3nnc4n3-c3cccnc3Nc3ccccc3-4)cc2)CC1 [Example 140, 1-(4-(4-(9H-benzo[f]pyrido[2,3-b][1,2,4]triazolo[4,3-d][1,4]diazepin-3-yl)benzyl)piperazin-1-yl)-2-phenylethanone]	5.22
CC(C)CCNCc1ccc(-c2nnc3n2-c2cccnc2Nc2ccccc2-3)cc1 [Example 68, N-(4-(9H-benzo[f]pyrido[2,3-b][1,2,4]triazolo[4,3-d][1,4]diazepin-3-yl)benzyl)-3-methylbutan-1-amine]	5.36
